Legend:
Thr315lle Bcr-Abl = conditions: only mutant of the 33 not inhibited
mutant forms of Bcr-Abl = conditions: 33 mutant forms evaluated

Cc1cn(-c2cc(NC(=O)c3ccc(C)c(Nc4nccc(-c5cccnc5)n4)c3)cc(C(F)(F)F)c2)cn1 [AMN107, 4-Methyl-3-[[4-(3-pyridinyl)-2-pyrimidinyl]amino]-N-[5-(4-methyl-1H-imidazol-1-yl)-3-(trifluoromethyl)phenyl] benzamide]
sensitivity of the Thr315lle mutant (Thr315lle Bcr-Abl): resistant
mutant forms of Bcr-Abl inhibited, out of those currently evaluated (mutant forms of Bcr-Abl): 32 of 33
